Experiment: Pharmacokinetic study of unmodified C-peptide in beagle dogs, single S.C. dose, plasma ELISA
Format: in vivo
Conditions: single S.C. dose 0.5 mg/kg
Experimental: A pharmacokinetic (PK) study was conducted to determine the C-peptide PK profile with unmodified C-peptide in beagle dogs.
Two male and one female dog received S.C. the unmodified synthetic human C-peptide (0.5 mg/kg; 0.025 mL/kg) formulated in phosphate buffered saline (20 mg/mL). Dogs were bled by venipuncture and blood samples were collected at predetermined time points over 14 days. Plasma samples were obtained after centrifugation of the blood (3,000 rpm for 10 minutes) and stored at −80° C. until analysis. A CRO with Good Laboratory Practice (GLP) capabilities (MicroConstants, Inc.; San Diego, Calif.) performed the bioanalytical work. […] Results were expressed as C-peptide concentrations. For the PK analysis, the below quantitation level (BQL) was treated as zero and nominal time points were used for all calculations. PK parameters were determined by standard model independent methods based on the individual plasma concentration-time data for each animal using model 200 in WinNonlin Professional 5.2.1 (Pharsight Corp., Mountain View, Calif.).

For CC(C)C[C@H](NC(=O)[C@H](C)NC(=O)[C@H](CC(C)C)NC(=O)[C@@H]1CCCN1C(=O)[C@H](CCC(N)=O)NC(=O)[C@H](CC(C)C)NC(=O)[C@H](CO)NC(=O)CNC(=O)[C@H](C)NC(=O)CNC(=O)[C@@H]1CCCN1C(=O)CNC(=O)CNC(=O)CNC(=O)[C@H](CC(C)C)NC(=O)[C@H](CCC(=O)O)NC(=O)[C@@H](NC(=O)[C@H](CCC(N)=O)NC(=O)CNC(=O)[C@@H](NC(=O)[C@H](CCC(N)=O)NC(=O)[C@H](CC(C)C)NC(=O)[C@H](CC(=O)O)NC(=O)[C@H](CCC(=O)O)NC(=O)[C@H](C)NC(=O)[C@@H](N)CCC(=O)O)C(C)C)C(C)C)C(=O)N[C@@H](CCC(=O)O)C(=O)NCC(=O)N[C@@H](CO)C(=O)N[C@@H](CC(C)C)C(=O)N[C@@H](CCC(N)=O)C(=O)O [CP-AQ], the “tolerability (clinical abnormalities)” value (14 days observation) was “well tolerated” and the “time until circulating levels of C-peptide were below quantitation level (BQL)” value (plasma) was “BQL within half a day”.
